In patent US12371459B2, “Antimicrobial peptide derived from Pseudin-2 peptide and uses thereof” (INDUSTRY-ACADEMIC COOPERATION FOUNDATION, CHOSUN UNIVERSITY, priority 2019, dated 2025):
Ends that are not written are not given here.

Columns and labels:
E. coli (CCARM 1238) = details: 24 hours at 37° C.
S. aureus (CCARM 3518) = details: 24 hours at 37° C.
E. coli (CCARM 1229) = details: 24 hours at 37° C.
P. aeruginosa 4007 = details: P. aeruginosa 4007, 24 hours at 37° C.
S. aureus (CCARM 3090) = details: 24 hours at 37° C.
P. aeruginosa 4891 = details: P. aeruginosa 4891, 24 hours at 37° C.
[1] = test system: P. aeruginosa (ATCC 27853); details: 24 hours at 37° C.
S. aureus (ATCC 25923) = details: 24 hours at 37° C.
E. coli (ATCC 25922) = details: 24 hours at 37° C.
[2] = Cytotoxicity in normal cell line (MTT); details: human, HaCaT keratinocyte cells
Protocol: To determine the cytotoxicity of the peptides produced by the method of Example 1 in normal cell line, cytotoxicity was measured by using human keratinocyte cell line (HaCaT cell line, Dr. N E. Fusenig, Heidelberg, Germany).
Specifically, HaCaT cells, which have been cultured in DMEM medium containing 10% FBS (fetal bovine serum), were aliquoted in a microtiter plate to have 2×10^5 cells per well. […] Twenty-four hours later, a reaction solution containing 0.5 mg/ml MTT (thiazolyl blue tetrazolium bromide) dissolved in phosphate buffered saline (PBS) was added in an amount of 100 μl to each well and the reaction was allowed to occur for 4 hours. After that, the supernatant was discarded, and, by dissolving MTT crystals that are formed by adding 200 μl DMSO (dimethyl sulfoxide), the absorbance at 560 nm was measured to determine the cell survival ability.

[3] = test system: erythrocytes of a mouse (Balb/c); assay: Erythrocyte hemolytic activity; details: 1 hour at 37° C.
Protocol: To compare the cytotoxicity among the peptides that are produced by the method of Example 1, erythrocyte hemolytic activity of the synthesized peptide was measured.
After that, the amount of hemoglobin contained in a supernatant collected by centrifuge at 1,000×g was determined by measuring the absorbance at a wavelength of 414 nm. As a control to be used as a reference for cell disruption level, the supernatant collected by a treatment with 1% Triton X-100 (Sigma, USA) and a reaction for 1 hour at 37° C. was used to measure the absorbance. By setting the resulting absorbance value at 100% of the erythrocyte hemolytic activity, hemolysis of each peptide was calculated using the following equation 1. Erythrocyte disrupting ability (%)=(Absorbance A−Absorbance B)/(Absorbance C−Absorbance B)×100 Equation 1 (in the above equation, Absorbance A indicates the absorbance of a reaction solution treated with each peptide, in which the absorbance is measured at a wavelength of 414 nm; Absorbance B indicates the absorbance of a reaction solution treated with PBS, in which the absorbance is measured at a wavelength of 414 nm; and Absorbance C indicates the absorbance of a reaction solution treated with 1% Triton X-100, in which the absorbance is measured at a wavelength of 414 nm).

plasmid DNA (pRSETB) = assay: Binding between antimicrobial peptide and DNA (agarose gel electrophoresis); details: plasmid DNA 300 ng, peptide/DNA ratio 0.25:1 to 4:1, 10 minutes at 37° C.
Protocol: Specifically, plasmid DNA (pRSETB, 300 ng) and the peptide were reacted for at different ratio (i.e., peptide/DNA ratio was 0 (DNA only), 0.25:1, 0.5:1, 1:1, 1.5:1, 2:1, 3:1, or 4:1) for 10 minutes at 37° C. After that, electrophoresis was carried out using 1% agarose gel followed by staining with ethidium bromide (EtBr) and UV determination.

Escherichia coli = assay: Flow cytometry, propidium iodide, effect on bacteria membrane; type: cell-based; details: peptide at MIC
Protocol: (§1) After that, the supernatant was removed by centrifuge (10,000 rpm) and stained with propidium iodide (PI, concentration of 10 μg/ml) for 30 minutes at 4° C. Thereafter, unbound propidium iodide was removed by centrifuge, and the problem of cell aggregation phenomenon was solved by adding physiological saline (PBS) in an amount of 1 ml.

Staphylococcus aureus = assay: as above; type: cell-based; details: peptide at MIC
Protocol: as §1

[4] = test system: Pseudomonas aeruginosa isolated strain 4891 (tolerance to antibiotics)
Text: (§2) To compare the antimicrobial activity among the peptides produced by the method of Example 1, the inventors of the present invention measured the minimal growth inhibitory concentration (MIC), which is minimum concentration of the peptide not allowing any […] of bacterial cells.
(§3) Specifically, the bacterial strains described in the following Table 2 were purchased and cultured to a mid-log phase in a medium that is appropriate for each strain. […] After the addition to a plate, the cells were cultured for 18 hours at 37° C. […] As a control, Pseudin-2 as a mother peptide was used.

[5] = test system: Pseudomonas aeruginosa isolated strain 4007 (tolerance to antibiotics)
Text: as §2, §3

[6] = test system: Staphylococcus aureus CCARM 3090 (tolerance to antibiotics)
Text: as §2, §3

[7] = test system: Bacillus subtilis KCTC 1998; details: KCTC 1998, 18 h
Text: as §2, §3

[8] = test system: Staphylococcus aureus ATCC 25923; details: ATCC 25923, 18 h
Text: as §2, §3

[9] = test system: Escherichia coli CCARM 1238 (tolerance to antibiotics)
Text: as §2, §3

[10] = test system: Trichosporon beigelii KCTC 7707; details: KCTC 7707, 18 h
Text: as §2, §3

[11] = test system: Escherichia coli CCARM 1229 (tolerance to antibiotics)
Text: as §2, §3

[12] = test system: Candida albicans KCTC 7270; details: KCTC 7270, 18 h
Text: as §2, §3

[13] = test system: Escherichia coli ATCC 25922; details: ATCC 25922, 18 h
Text: as §2, §3

[14] = test system: Staphylococcus aureus CCARM 3518 (tolerance to antibiotics)
Text: as §2, §3

[15] = test system: Listeria monocytogenes KCTC 3710; details: KCTC 3710, 18 h
Text: as §2, §3

[16] = test system: Pseudomonas aeruginosa ATCC 27853; details: ATCC 27853, 18 h
Text: as §2, §3

[17] = test system: Salmonella typhimurium KCTC 1926; details: KCTC 1926, 18 h
Text: as §2, §3

Q: Which results are given for `O=C(O)c1cn(C2CC2)c2cc(N3CCNCC3)c(F)cc2c1=O` [Ciprofloxacin]?
A: Biofilm minimal inhibitory concentration (E. coli (CCARM 1238)): 128 µM; Biofilm minimal inhibitory concentration (S. aureus (CCARM 3518)): >400 µM; Biofilm minimal inhibitory concentration (E. coli (CCARM 1229)): 128 µM; Biofilm minimal inhibitory concentration (P. aeruginosa 4007): >400 µM; Biofilm minimal inhibitory concentration (S. aureus (CCARM 3090)): >400 µM; Biofilm minimal inhibitory concentration (P. aeruginosa 4891): >400 µM; Biofilm minimal inhibitory concentration [1]: 2 µM; Biofilm minimal inhibitory concentration (S. aureus (ATCC 25923)): 4 µM; Biofilm minimal inhibitory concentration (E. coli (ATCC 25922)): 2 µM

Q: What does the source list for LNALKKVFQGIHEAIKLI-NH2 [Pse-T1]?
A: viability at 24 h, 3.13 µM [2]: 100%; viability at 24 h, 6.25 µM [2]: 100%; viability at 24 h, 12.5 µM [2]: 100%; viability at 24 h, 25 µM [2]: 100%; viability at 24 h, 50 µM [2]: 98.8%; viability at 24 h, 100 µM [2]: 86.2%; Erythrocyte disrupting ability ([3]; peptide concentration 3.13 μM): 0%; Erythrocyte disrupting ability ([3]; peptide concentration 6.25 μM): 0%; Erythrocyte disrupting ability ([3]; peptide concentration 12.5 μM): 0%; Erythrocyte disrupting ability ([3]; peptide concentration 25 μM): 0%; Erythrocyte disrupting ability ([3]; peptide concentration 50 μM): 3.9%; Erythrocyte disrupting ability ([3]; peptide concentration 100 μM): 12.3%; Binding to DNA (plasmid DNA (pRSETB)): showed binding to DNA; Membrane disrupting ability compared with Pseudin-2 (Escherichia coli): higher membrane disrupting ability than Pseudin-2; Membrane disrupting ability compared with Pseudin-2 (Staphylococcus aureus): higher membrane disrupting ability than Pseudin-2

Q: Which viability at 24 h, 3.13 µM ([2]; Cell survival ability) does the source give for “WLNALKKVFQGIHEAIKLIWNHVQ-NH2 [Pse-Anal2]” here?
A: The viability at 24 h, 3.13 µM was 81.3%.

Q: And the viability at 24 h, 6.25 µM ([2]; Cell survival ability)?
A: Its viability at 24 h, 6.25 µM is 48.1%.

Q: And the viability at 24 h, 12.5 µM ([2]; Cell survival ability)?
A: Its viability at 24 h, 12.5 µM is 32.2%.

Q: What about the viability at 24 h, 25 µM ([2]; Cell survival ability) of the same compound?
A: Its viability at 24 h, 25 µM is 18.8%.

Q: And the viability at 24 h, 50 µM ([2]; Cell survival ability)?
A: Its viability at 24 h, 50 µM is 15.7%.

Q: And the viability at 24 h, 100 µM ([2]; Cell survival ability)?
A: Its viability at 24 h, 100 µM is 5.1%.

Q: And the Minimal inhibitory concentration [4]?
A: Its Minimal inhibitory concentration is 4 µM.

Q: What about the Minimal inhibitory concentration [5] of the same compound?
A: Its Minimal inhibitory concentration is 2 µM.

Q: And the Minimal inhibitory concentration [6]?
A: The Minimal inhibitory concentration was 4 µM.

Q: What about the Minimal inhibitory concentration [7] of the same compound?
A: Its Minimal inhibitory concentration is 4 µM.

Q: What about the Minimal inhibitory concentration [8] of the same compound?
A: The Minimal inhibitory concentration was 4 µM.

Q: And the Minimal inhibitory concentration [9]?
A: The Minimal inhibitory concentration was 2 µM.

Q: What about the Minimal inhibitory concentration [10] of the same compound?
A: The Minimal inhibitory concentration was 32 µM.

Q: And the Minimal inhibitory concentration [11]?
A: Its Minimal inhibitory concentration is 2 µM.

Q: What about the Minimal inhibitory concentration [12] of the same compound?
A: Its Minimal inhibitory concentration is 32 µM.

Q: And the Minimal inhibitory concentration [13]?
A: Its Minimal inhibitory concentration is 2 µM.

Q: And the Minimal inhibitory concentration [14]?
A: Its Minimal inhibitory concentration is 4 µM.

Q: And the Minimal inhibitory concentration [15]?
A: The Minimal inhibitory concentration was 8 µM.

Q: What about the Minimal inhibitory concentration [16] of the same compound?
A: Its Minimal inhibitory concentration is 2 µM.

Q: And the Minimal inhibitory concentration [17]?
A: The Minimal inhibitory concentration was 2 µM.
